Reference: patent US5506359A, “Cocaine analogues and their use as cocaine drug therapies and therapeutic and imaging agents for neurodegenerative disorders” (priority 1993, dated 1996)
Where two headings read alike, the source gives them in different places.

Tests used:
[1] = target: T1, dopamine transporter ([^3 H]CFT binding sites, primate caudate-putamen) (Macaca fascicularis, UniProt Q9GJT6); test: Inhibition of [^3 H]CFT binding in monkey caudate-putamen membranes (Table 2); design: species or system cynomolgus monkeys (Macaca fascicularis)
T1 construct: from tissue; host or cells: caudate-putamen membranes of cynomolgus monkey brain
T1 sequence (Q9GJT6 whole entry): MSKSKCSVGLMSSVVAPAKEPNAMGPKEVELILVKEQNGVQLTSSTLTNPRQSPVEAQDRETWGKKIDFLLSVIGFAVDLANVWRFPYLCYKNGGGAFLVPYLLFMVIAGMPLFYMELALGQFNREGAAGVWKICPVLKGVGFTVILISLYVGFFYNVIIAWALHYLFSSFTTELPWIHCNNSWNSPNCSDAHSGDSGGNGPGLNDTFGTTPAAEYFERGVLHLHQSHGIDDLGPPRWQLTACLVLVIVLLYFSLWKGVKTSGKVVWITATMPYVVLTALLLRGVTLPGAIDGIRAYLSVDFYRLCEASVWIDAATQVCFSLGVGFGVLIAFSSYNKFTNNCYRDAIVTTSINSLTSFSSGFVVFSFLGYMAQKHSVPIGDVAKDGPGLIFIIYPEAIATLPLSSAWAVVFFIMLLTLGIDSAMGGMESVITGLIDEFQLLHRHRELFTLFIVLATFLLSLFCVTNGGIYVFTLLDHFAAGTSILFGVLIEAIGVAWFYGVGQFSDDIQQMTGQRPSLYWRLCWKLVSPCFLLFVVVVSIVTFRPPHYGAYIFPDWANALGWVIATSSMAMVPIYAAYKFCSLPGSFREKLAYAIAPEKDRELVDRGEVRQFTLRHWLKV

[2] = target: dopamine transporter, human caudate nucleus and putamen (Homo sapiens, UniProt Q01959); test: [^3 H]CFT binding to homogenates of human caudate nucleus and putamen
Sequence of dopamine transporter, human caudate nucleus and putamen (Q01959 whole entry): as the sequence (Q9GJT6 whole entry) above, with M24V, V137I, S194P, G198S, N200D, G201S, P202S counted along it
From the text: In order to determine whether [^3 H]CFT labels sites associated with the dopamine transporter, the binding of [^3 H]CFT to homogenates of human caudate nucleus and putamen, was characterized.

[3] = tested on: [^3 H]CFT binding sites in monkey caudate-putamen; settings: cited from earlier work; for number of binding components: competition curves; for steepness of competition curve: displacement of [^3 H]CFT
[4] = tested on: cocaine binding sites associated with the dopamine transporter; test: Binding in postmortem Parkinson's diseased putamen / caudate-putamen; design: species or system human; settings: tissue homogenates (FIG. 3) or tissue sections
[5] = tested on: cocaine receptors in squirrel monkey brain; test: Ex vivo autoradiography after intravenous administration; format: in vivo, squirrel monkeys
From the text: From the in vitro autoradiographic studies, two conclusions were drawn: (a) cocaine receptors labelled by [^3 H]CFT distributed primarily to dopamine-rich brain regions and (b) the highly circumscribed distribution and low level of non-specific binding of [^3 H]CFT further supported the development of CFT as a PET imaging ligand for cocaine receptors in vivo. However, as the distribution pattern of a probe in vitro may not necessarily reflect its distribution in vivo, it was necessary to determine whether similar conclusions could be drawn using ex vivo autoradiographic techniques. The ex vivo autoradiographic distribution of [^3 H]CFT was determined following intravenous administration of [^3 H]CFT (1.0 or 2.5 nmol/kg) to squirrel monkeys (FIG. 4B). Brain sections from several A-P levels were exposed to [^3 H]-sensitive film. […] Nevertheless, the ex vivo labeling of brain regions by [^3 H] CFT corresponded closely to the in vitro autoradiographic pattern.
(§1) At the time these studies were completed, a higher affinity iodinated analog of [^3 H]CFT, [^125 I]RTI-55 (i.e., CIT, 2β-carbomethoxy-3β-(4-iodophenyl)tropane; Dupont-NEN), became available. […] This ligand was also tested by ex vivo autoradiography as an imaging probe.

[6] = target: T2, cocaine recognition sites in monkey caudate-putamen (Macaca fascicularis, UniProt Q9GJT6); settings: cited from earlier work
T2 construct: All studies were conducted in monkey brain caudate-putamen; from tissue; host or cells: monkey brain caudate-putamen homogenates
T2 sequence (Q9GJT6 whole entry): as the sequence (Q9GJT6 whole entry) above

[7] = tested on: cocaine recognition sites in squirrel monkey brain; test: In vitro autoradiography in squirrel monkey brain sections; format: binding
Protocol: To identify the distribution of cocaine recognition sites in the brain, autoradiographic techniques were utilized. Such techniques were particularly appropriate for this purpose because they are 100-1,000 times more sensitive than radioreceptor assays conducted in tissue homogenates. […] Three sequential procedures: parametric studies, in vitro autoradiographic techniques, and ex vivo autoradiographic techniques were conducted in tissue sections of squirrel monkey brains.
After establishing suitable conditions for autoradiography, systematic mapping of cocaine recognition sites were conducted in squirrel monkey brain at nine anterior-posterior levels. Tissue sections were incubated alone, or in the presence of excess (-)-cocaine to determine total and nonspecific binding of [^3 H]CFT, respectively.

[8] = target: T2, cocaine recognition sites in monkey caudate-putamen; test: [^3 H]CFT and [^3 H]cocaine binding in tissue homogenates of monkey caudate-putamen
Protocol: All studies were conducted in monkey brain caudate-putamen for two reasons. […] Second, primates are consistently used to test diagnostic imaging agents and to test for cocaine-like drugs and drug therapies for Parkinson's disease.

[9] = tested on: caudate-putamen / striatum cocaine receptors; test: PET imaging with [^11 C]CFT
[10] = tested on: serotonin transporter; settings: cited from earlier work
[11] = tested on: sites in the caudate putamen; test: [^125 I]RTI-55 labeling of sites in caudate putamen; format: binding
Protocol: as §1

[12] = human caudate nucleus and putamen homogenates
[13] = [^3 H]CFT 1.0 or 2.5 nmol/kg i.v.

## COC(=O)[C@H]1[C@@H](c2ccc(Cl)cc2)C[C@@H]2CC[C@H]1N2C [4'b (CCT), 2β-Carbomethoxy-3β-(4-chlorophenyl)tropane]
[1]
  IC50: 1.4 ± 0.035 nM

## COC(=O)[C@H]1[C@@H](c2cccc(Br)c2)C[C@@H]2CC[C@H]1N2C [4'd (3-CBT), 2β-Carbomethoxy-3β-(3-bromophenyl)tropane]
[1]
  IC50: 7.93 ± 0.077 nM

## COC(=O)[C@H]1[C@@H](c2cccc(I)c2)C[C@@H]2CC[C@H]1N2C [4'e (3-CIT), 2β-Carbomethoxy-3β-(3-iodophenyl)tropane]
[1]
  IC50: 27.8 ± 3.05 nM

## CCC[CH2][Sn]([CH2]CCC)([CH2]CCC)[c]1cccc([C@H]2C[C@@H]3CC[C@H]([C@H]2C(=O)OC)N3C)c1 [4'f, 2β-Carbomethoxy-3β-(3-tributylstannylphenyl)tropane]
[1]
  IC50: 1080 ± 165 nM

## COC(=O)[C@H]1[C@@H](c2ccccc2)C[C@@H]2CC[C@H]1N2C [4'g (WIN 35, 065-2)]
[1]; read-out: IC50
  IC50: 65 ± 12 nM

## COC(=O)[C@H]1[C@@H](c2ccc(I)cc2)C[C@@H]2CC[C@H]1N2C [4'h (RTI-55), 2β-carbomethoxy-3β-(4-iodophenyl)tropane]
[1]
  IC50: 1.08 ± 0.06 nM

## COC(=O)[C@@H]1[C@H](OC(=O)c2ccccc2)C[C@H]2CC[C@@H]1N2C [(+)-cocaine]
[2]; [12]
  rank order of potency for inhibiting [^3 H]CFT binding: Lu 19-005>CFT, mazindol, GBR 12909>(-)-cocaine>bupropion>(+)-cocaine

## COC(=O)[C@H]1[C@@H](OC(=O)c2ccccc2)C[C@@H]2CC[C@H]1N2C [(-)-cocaine]
[2]; [12]
  rank order of potency for inhibiting [^3 H]CFT binding: Lu 19-005>CFT, mazindol, GBR 12909>(-)-cocaine>bupropion>(+)-cocaine
[3]
  extent of displacement of [^3 H]CFT: full displacement of [^3 H]CFT
  number of binding components: at least two binding components
  steepness of competition curve: 0.61-0.89

## COC(=O)[C@H]1[C@@H](OC(=O)c2ccccc2)C[C@@H]2CC[C@H]1N2 [(-)-norcocaine]
[3]
  extent of displacement of [^3 H]CFT: full displacement of [^3 H]CFT
  number of binding components: at least two binding components
  steepness of competition curve: 0.61-0.89

## Fc1ccc(C(OCCN2CCN(CCCc3ccccc3)CC2)c2ccc(F)cc2)cc1 [GBR 12909]
[2]
  rank order of potency for inhibiting [^3 H]CFT binding: Lu 19-005>CFT, mazindol, GBR 12909>(-)-cocaine>bupropion>(+)-cocaine
[3]
  number of binding components: a single binding component
  steepness of competition curve: 0.94-1.1

## CNC1CC(c2ccc(Cl)c(Cl)c2)c2ccccc21 (stereo not shown) [Lu 19-005]
[3]
  number of binding components: a single binding component
  steepness of competition curve: 0.94-1.1

## COC(=O)[C@H]1[C@@H](c2ccc(F)cc2)C[C@@H]2CC[C@H]1N2C [[^3 H]CFT, 2β-carbomethoxy-3β-(4-fluorophenyl)tropane]
[4]
  [^3 H]CFT binding sites in postmortem human Parkinson's diseased caudate-putamen: severely depleted
[5]; [13]
  ex vivo binding compared with in vitro, cortex and thalamus: more prominent binding in vivo than in vitro
  ex vivo distribution of binding: caudate, putaman>nucleus accumbens/olfactory tubercla, stria terminalis>substantia nigra>hypothalamus
[6]; by enantiomers of cocaine and pseudococaine and diastereoisomers of WIN 35,065-2
  stereoselective inhibition of binding: inhibited stereoselectively
[6]
  NaCl requirement for specific binding: NaCl was necessary for specific binding
  dissociation rate versus [^3 H]cocaine: considerably slower
  non-specific binding versus [^3 H]cocaine: lower than that of [^3 H]cocaine
[6]; high- and low-affinity binding components
  high-affinity component of total number of sites: approximately 10%
[6]; monkey caudate-putamen homogenates
  Bmax (density of binding sites): 388 pmol/g
[6]; read-out: K0.50, affinity, monkey caudate-putamen
  Kd: 16 nM
[2]; [12]
  character of [^3 H]CFT binding: saturable, stereoselective
[7]; bed nucleus of stria terminalis, ventral tegmental area, medial preoptic area, pineal, hippocampus, thalamic central nuclei
  density of [^3 H]CFT binding: Low, though measurable, levels
[7]; caudate nucleus, putamen, nucleus accumbens, olfactory tubercle
  specific binding as % of total binding: > 90%
[7]; dopamine-rich regions: caudate nucleus, putamen, nucleus accumbens, olfactory tubercle
  density of [^3 H]CFT binding: High densities
[7]; substantia nigra, zona incerta, amygdala, hypothalamus
  density of [^3 H]CFT binding: Intermediate densities
[7]; white matter, cerebellum, globus pallidus, cortical regions
  density of [^3 H]CFT binding: Near background levels
[8]
  affinity relative to [^3 H]cocaine: 18 times

## COC(=O)[C@H]1[C@@H](c2ccc(F)cc2)C[C@@H]2CC[C@H]1N2C [[^11 C]CFT, 2β-carbomethoxy-3β-(4-fluorophenyl)tropane]
[9]; 58 min
  striatal-to-cerebellar ratio: > 4.0
[9]; MPTP-treated Parkinsonian
  CFT binding in MPTP-treated Parkinsonian monkeys: reduced
[9]; PET, 90 min imaging
  uptake in caudate-putamen: high uptake
[9]; asymptomatic
  CFT binding in asymptomatic monkeys: depletion was found

## COC(=O)[C@H]1[C@@H](c2ccc(I)cc2)C[C@@H]2CC[C@H]1N2C [[^125 I]RTI-55, 2β-carbomethoxy-3β-(4-iodophenyl)tropane]
[5]; caudate-putamen
  ex vivo density: highest densities
[5]; thalamus, cortex and brain stem nuclei
  ex vivo density: moderately high densities
[10]
  additional sites labeled: associated with the serotonin transporter
[11]
  potency of labeling caudate putamen sites relative to [^3 H]CFT: approximately 10 fold

## CC(NC(C)(C)C)C(=O)c1cccc(Cl)c1 (stereo not shown) [bupropion]
[2]
  rank order of potency for inhibiting [^3 H]CFT binding: Lu 19-005>CFT, mazindol, GBR 12909>(-)-cocaine>bupropion>(+)-cocaine
[3]
  number of binding components: a single binding component
  steepness of competition curve: 0.94-1.1

## OC1(c2ccc(Cl)cc2)c2ccccc2C2=NCCN21 (stereo not shown) [mazindol]
[2]
  rank order of potency for inhibiting [^3 H]CFT binding: Lu 19-005>CFT, mazindol, GBR 12909>(-)-cocaine>bupropion>(+)-cocaine
[9]; cynomolgus monkey, in vivo
  displacement of bound [^11 C]CFT from striatum: displaced bound [^11 C]CFT from the striatum
